≈ marks a conversion by molar mass, not a printed value. Calls of active or inactive are those of the source. No cut-off for these calls is given here.
Experiments:
[1] = tested on: CCRF-CEM; experiment: Cytotoxicity against human CCRF-CEM cells at 10 ug/ml; type: functional, cell-based
[2] = tested on: Lacticaseibacillus casei; experiment: Antimicrobial activity against Lactobacillus casei ATCC 7469 at 2 ug/ml; type: functional, organism-based
[3] = tested on: Mus musculus; experiment: Toxicity in mouse L1210 cells allografted BDF1 mouse at 60 mg/kg, ip; type: organism-based; parameters: dose 60 mg/kg, route intraperitoneal; conditions: in vivo
[4] = biological target: T1, Thymidylate synthase (Lactobacillus casei) (UniProt P00469); experiment: Inhibition of Lactobacillus casei thymidylate synthetase; conditions: Lacticaseibacillus casei
T1 sequence (whole entry): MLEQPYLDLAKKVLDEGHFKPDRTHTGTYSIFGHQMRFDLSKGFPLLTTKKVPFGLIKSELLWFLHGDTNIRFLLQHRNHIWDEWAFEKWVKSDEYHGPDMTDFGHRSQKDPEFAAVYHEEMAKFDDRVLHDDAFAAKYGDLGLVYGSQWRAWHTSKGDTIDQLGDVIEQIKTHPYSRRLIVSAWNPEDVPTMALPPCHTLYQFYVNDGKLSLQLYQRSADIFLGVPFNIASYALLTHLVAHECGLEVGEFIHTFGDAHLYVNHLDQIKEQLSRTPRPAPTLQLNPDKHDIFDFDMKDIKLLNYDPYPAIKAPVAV

[5] = tested on: L1210; experiment: Antitumor activity against mouse L1210 cells allografted in BDF1 mouse assessed as increase of life span at non-toxic dosed administered as ip on day 1, 4 and 7; type: functional, organism-based
[6] = tested on: Pediococcus; experiment: Increase of Pediococcus cerevisiae ATCC 8081 growth relative to leucovorin; type: functional
[7] = tested on: Enterococcus faecium; experiment: Increase of Streptococcus faecium ATCC 8043 growth relative to folic acid; type: functional
[8] = tested on: Lacticaseibacillus casei; experiment: Antimicrobial activity against Lactobacillus casei ATCC 7469; type: functional; conditions: read-out: ID50 (the source's name)
[9] = tested on: CCRF-CEM; experiment: Cytotoxicity against human CCRF-CEM cells; type: functional; conditions: read-out: ID50 (the source's name)

Structure (SMILES)	Activity [1]	Activity [2]	further results
COC(=O)CC[C@H](NC(=O)Nc1ccc(/N=C/c2cnc3nc(NC(C)=O)[nH]c(=O)c3n2)cc1)C(=O)OC	inactive	inactive	–
COC(=O)CC[C@H](NC(=O)Nc1ccc(NCc2cnc3nc(NC(C)=O)[nH]c(=O)c3n2)cc1)C(=O)OC	inactive	inactive	–
COC(=O)C[C@H](NC(=O)Nc1ccc(/N=C/c2cnc3nc(NC(C)=O)[nH]c(=O)c3n2)cc1)C(=O)OC	inactive	inactive	–
COC(=O)C[C@H](NC(=O)Nc1ccc(NCc2cnc3nc(NC(C)=O)[nH]c(=O)c3n2)cc1)C(=O)OC	inactive	inactive	–
Nc1nc2ncc(CNc3ccc(NC(=O)NC(CCC(=O)O)C(=O)O)cc3)nc2c(=O)[nH]1 (racemic)	inactive	inactive	Activity [3]: Toxic; ID50 [4]: 1.8 ×10⁻⁴ M; Activity [5]: inactive; Activity [6]: 0.5%; Activity [7]: 2%
Nc1nc2ncc(CNc3ccc(NC(=O)NC(CC(=O)O)C(=O)O)cc3)nc2c(=O)[nH]1 (racemic)	inactive	–	Activity [3]: Toxic; ID50 [4]: 1.8 ×10⁻⁴ M; Activity [5]: inactive; IC50 [8]: 1.6 µg/mL (≈ 3.62 µM)
CN(Cc1cnc2nc(N)nc(N)c2n1)c1ccc(C(=O)N[C@@H](CCC(=O)O)C(=O)O)cc1 [METHOTREXATE]	–	–	IC50 [9]: 0.02 µg/mL (≈ 0.044 µM); IC50 [8]: 0.01 µg/mL (≈ 0.022 µM)

Reference: ChEMBL document CHEMBL3227995, “Synthesis of aza homologues of folic acid” (J Med Chem, 1979)
